Experimental data reported in publication PMC9820316, “Novel Arylpiperazine Derivatives of Salicylamide with α1-Adrenolytic Properties Showed Antiarrhythmic and Hypotensive Properties in Rats” (International Journal of Molecular Sciences, 2022).

What follows are molecules tested on aconitine-induced arrhythmia model in rats (assay: Prophylactic antiarrhythmic activity in aconitine-induced arrhythmia). Details: 5 mg/kg iv 15 min before aconitine 20 μg/kg; number of animals with event.
Assay type: in vivo, rat
Description: The animals were anesthetized with thiopental (75 mg/kg ip). Depending on the model, either adrenaline, aconitine, or calcium chloride was used as an arrhythmogen. Adrenaline and aconitine were administered iv at a dose of 20 µg/kg, whereas calcium chloride was administered at a dose of 140 mg/kg to induce heart rhythm disturbances. The tested compounds were injected iv 15 min before the arrhythmogen. Aspel ASCARD apparatus (standard II lead, with the tape speed 50 mm/s and voltage calibration 1 mV = 1 cm) was used for ECG measurements. […] The ED50 was calculated using the method of Litchfield and Wilcoxon.
In the case of `Cl.NC(=O)c1ccccc1OCCCCN1CCN(c2cccc(Cl)c2)CC1` [JJGW01, 2-{4-[4-(3-chlorophenyl)piperazin-1-ylo]butoxy}benzamide hydrochloride], the Blocks is reported as 6/6, the Bradycardia is reported as 6/6 and the Extrasystoles is reported as 5/6. For the same molecule, the Fibrillations was 6/6 and the Mortality was 6/6.
For `Cl.NC(=O)c1ccccc1OCCCCCN1CCN(c2cccc(Cl)c2)CC1` [JJGW02, 2-{5-[4-(3-chlorophenyl)piperazin-1-ylo]pentoxy}benzamide hydrochloride], the Blocks was 6/6, the Bradycardia was 6/6 and the Extrasystoles was 6/6. The Fibrillations was 6/6 and the Mortality was 6/6.
With `Cl.NC(=O)c1ccccc1OCCCCCCN1CCN(c2cccc(Cl)c2)CC1` [JJGW03, 2-{6-[4-(3-chlorophenyl)piperazin-1-ylo]hexoxy}benzamide hydrochloride] the Blocks was 6/6, the Bradycardia was 6/6 and the Extrasystoles was 6/6. The Fibrillations was 6/6 and the Mortality was 6/6.
With `COc1ccccc1N1CCN(Cc2cccc(COc3ccccc3C(N)=O)c2)CC1.Cl` [JJGW11, 2-[(3-{[4-(2-metoxyphenyl)piperazin-1-ylo]methyl}phenyl)metoxy}benzamide hydrochloride] the Blocks was 6/6, the Bradycardia was 6/6 and the Extrasystoles was 5/6. The Fibrillations was 4/6 and the Mortality was 6/6.
With `COc1ccccc1N1CCN(Cc2ccc(COc3ccccc3C(N)=O)cc2)CC1.Cl` [JJGW12, 2-[(4-{[4-(2-metoxyphenyl)piperazin-1-ylo]methyl}phenyl)metoxy}benzamide hydrochloride] the Blocks was 5/6, the Bradycardia was 6/6 and the Extrasystoles was 6/6. For the same molecule, the Fibrillations was 5/6 and the Mortality was 6/6.
